According to ChEMBL document CHEMBL1687744, “Furanone at subinhibitory concentrations enhances staphylococcal biofilm formation by luxS repression” (Antimicrob Agents Chemother, 2009):
Values after ≈ are worked out from the molar mass of the structure shown. Active and inactive are the calls of the source. The rule behind the calls is not given here.

What was measured:
[1] = tested on: Staphylococcus epidermidis; test: Induction of biofilm formation in Staphylococcus epidermidis 1457 at 1 to 100 uM after 18 hrs by crystal violet staining; assay type: functional, organism-based
[2] = tested on: Staphylococcus epidermidis; test: Bactericidal activity against Staphylococcus epidermidis 1457 at >50 uM after 18 hrs by CFU count assay; assay type: functional, organism-based
[3] = tested on: L929; test: Cytotoxicity against mouse L929 cells after 24 hrs at 18.6 +/- 12.3 uM by LDH release assay; assay type: cell-based; settings: l929, 24 h
[4] = tested on: L929; test: Cytotoxicity against mouse L929 cells after 24 hrs at 38.35 +/- 15.0 uM by LDH release assay; assay type: cell-based; settings: l929, 24 h
[5] = tested on: L929; test: Cytotoxicity against mouse L929 cells after 24 hrs at 12.1 +/- 5.7 uM by LDH release assay; assay type: cell-based; settings: l929, 24 h
[6] = tested on: Staphylococcus epidermidis; test: Antimicrobial activity against ica gene-deficient Staphylococcus epidermidis 1457 by macrodilution method; assay type: functional
[7] = tested on: Pseudomonas aeruginosa; test: Inhibition of biofilm formation of Pseudomonas aeruginosa PAO1 at 0.322 uM to 2.58 mM; assay type: functional, organism-based
[8] = tested on: Bacillus subtilis; test: Induction of biofilm formation in Bacillus subtilis after 18 hrs by crystal violet staining; assay type: functional, organism-based
[9] = tested on: Staphylococcus epidermidis; test: Reduction luxS mRNA level in Staphylococcus epidermidis 1457 at 20 uM; assay type: functional, organism-based
[10] = tested on: Pseudomonas aeruginosa; test: Antimicrobial activity against Pseudomonas aeruginosa PAO1 by macrodilution method; assay type: functional
[11] = tested on: Staphylococcus aureus; test: Increase in biofilm formation in Staphylococcus aureus Newman by crystal violet staining; assay type: functional, organism-based
[12] = tested on: Staphylococcus aureus; test: Induction of biofilm formation in Staphylococcus aureus 113 after 18 hrs by crystal violet staining; assay type: functional, organism-based
[13] = tested on: Staphylococcus aureus; test: Bactericidal activity against Staphylococcus aureus Newman at >10 uM after 18 hrs by CFU count assay; assay type: functional, organism-based
[14] = tested on: Staphylococcus aureus; test: Increase in biofilm formation in agr gene-deficient Staphylococcus aureus Newman by crystal violet staining; assay type: functional, organism-based
[15] = tested on: Staphylococcus epidermidis; test: Antimicrobial activity against Staphylococcus epidermidis 047 by macrodilution method; assay type: functional
[16] = tested on: Staphylococcus epidermidis; test: Effect on agr quorum sensing system in Staphylococcus epidermidis 1457 assessed as RNA3 expression level at 2.5 to 20 uM; assay type: functional, organism-based
[17] = tested on: Staphylococcus epidermidis; test: Bactericidal activity against Staphylococcus epidermidis 047 at >10 uM after 18 hrs by CFU count assay; assay type: functional, organism-based
[18] = tested on: Bacillus subtilis; test: Antimicrobial activity against Bacillus subtilis by macrodilution method; assay type: functional
[19] = tested on: Staphylococcus aureus; test: Antimicrobial activity against Staphylococcus aureus Newman by macrodilution method; assay type: functional
[20] = tested on: Staphylococcus epidermidis; test: Antimicrobial activity against Staphylococcus epidermidis 1457 by macrodilution method; assay type: functional
[21] = tested on: Staphylococcus epidermidis; test: Effect on biofilm formation in luxS gene-deficient Staphylococcus epidermidis 1457 at >10 uM by crystal violet staining; assay type: functional, organism-based
[22] = tested on: L929; test: Cytotoxicity against mouse L929 cells after 24 hrs at 28.4 +/- 8.4 uM by LDH release assay; assay type: cell-based; settings: l929, 24 h
[23] = tested on: Staphylococcus epidermidis; test: Induction of biofilm formation in ica gene-deficient Staphylococcus epidermidis 047 after 18 hrs by crystal violet staining; assay type: functional, organism-based
[24] = tested on: Staphylococcus epidermidis; test: Bactericidal activity against ica gene-deficient Staphylococcus epidermidis 1457 at >10 uM after 18 hrs by CFU count assay; assay type: functional, organism-based
[25] = tested on: Staphylococcus epidermidis; test: Induction of biofilm formation in ica gene-deficient Staphylococcus epidermidis 1457 after 18 hrs by crystal violet staining; assay type: functional, organism-based
[26] = tested on: Staphylococcus epidermidis; test: Bactericidal activity against Staphylococcus epidermidis 1457 at >10 uM after 18 hrs by CFU count assay; assay type: functional, organism-based
[27] = tested on: Staphylococcus epidermidis; test: Antimicrobial activity against ica gene-deficient Staphylococcus epidermidis 047 by macrodilution method; assay type: functional
[28] = tested on: Staphylococcus epidermidis; test: Increase in polysaccharide intercellular adhesin in Staphylococcus epidermidis 1457 at 2.5 to 20 uM by ant-PIA staining; assay type: functional, organism-based
[29] = tested on: Staphylococcus aureus; test: Bactericidal activity against Staphylococcus aureus 113 at >10 uM after 18 hrs by CFU count assay; assay type: functional, organism-based
[30] = tested on: Staphylococcus epidermidis; test: Increase in biofilm formation in Staphylococcus epidermidis 047 at 0.1 times MIC to 0.2 X MIC after 18 hrs by crystal violet staining; assay type: functional, organism-based
[31] = tested on: Staphylococcus epidermidis; test: Induction of biofilm formation in Staphylococcus epidermidis 1457 at 0.1 times MIC to 0.2 X MIC after 18 hrs by crystal violet staining; assay type: functional, organism-based
[32] = tested on: Staphylococcus epidermidis; test: Bactericidal activity against ica gene-deficient Staphylococcus epidermidis 047 at >10 uM after 18 hrs by CFU count assay; assay type: functional, organism-based
[33] = tested on: Staphylococcus aureus; test: Increase in biofilm formation in Staphylococcus aureus Newman after 18 hrs by crystal violet staining; assay type: functional, organism-based
[34] = tested on: Staphylococcus aureus; test: Antimicrobial activity against Staphylococcus aureus 113 by macrodilution method; assay type: functional

Question: Which results are given for `CCCC(Br)C1=C(Br)/C(=C/Br)OC1=O` (configuration not stated)?
Answer: Activity [1]: inactive; Activity [2]: Active; Activity [3]: 30%

Question: Which Activity [4] does the source give for `C#CCOC(CCC)C1=C(Br)/C(=C/Br)OC1=O` (configuration not stated) here?
Answer: Its Activity is 30%.

Question: And the Activity [1]?
Answer: The Activity was “inactive”.

Question: And the Activity [2]?
Answer: Its Activity is “Active”.

Question: With `CCCC(OCCOCCOCCN=[N+]=[N-])C1=C(Br)/C(=C/Br)OC1=O` (configuration not stated) as the compound, how does the Activity [1] read?
Answer: The Activity was “inactive”.

Question: And the Activity [2]?
Answer: The Activity was “Active”.

Question: And the Activity [5]?
Answer: Its Activity is 30%.

Question: `CCCCC1=C(Br)/C(=C/Br)OC1=O` was tested. Which MBC [6] did it give?
Answer: Its MBC is greater than 130 µM.

Question: What about the MIC [6] of the same compound?
Answer: Its MIC is 65 µM (≈ 20.1 µg/mL).

Question: What about the inhibition [7] of the same compound?
Answer: Its inhibition is “Active”.

Question: And the Activity [8]?
Answer: The Activity was “inactive”.

Question: What about the Activity [9] of the same compound?
Answer: The Activity was “Active”.

Question: And the MBC [10]?
Answer: The MBC was greater than 130 µM.

Question: What about the MIC [10] of the same compound?
Answer: Its MIC is greater than 130 µM.

Question: What about the Activity [11] of the same compound?
Answer: Its Activity is “Active”.

Question: What about the Activity [12] of the same compound?
Answer: Its Activity is “inactive”.

Question: What about the Activity [13] of the same compound?
Answer: Its Activity is “Active”.

Question: What about the Activity [2] of the same compound?
Answer: Its Activity is “Active”.

Question: And the Activity [14]?
Answer: Its Activity is “Active”.

Question: What about the MBC [15] of the same compound?
Answer: Its MBC is greater than 130 µM.

Question: And the MIC [15]?
Answer: The MIC was 50 µM (≈ 15.5 µg/mL).

Question: And the Activity [16]?
Answer: The Activity was “inactive”.

Question: What about the Activity [17] of the same compound?
Answer: The Activity was “Active”.

Question: What about the MBC [18] of the same compound?
Answer: Its MBC is 100 µM (≈ 31 µg/mL).

Question: And the MIC [18]?
Answer: The MIC was 100 µM (≈ 31 µg/mL).

Question: What about the MBC [19] of the same compound?
Answer: Its MBC is greater than 130 µM.

Question: What about the MIC [19] of the same compound?
Answer: The MIC was 15 µM (≈ 4.65 µg/mL).

Question: And the MBC [20]?
Answer: The MBC was greater than 130 µM.

Question: And the MIC [20]?
Answer: Its MIC is 50 µM (≈ 15.5 µg/mL).

Question: What about the Activity [21] of the same compound?
Answer: The Activity was “inactive”.

Question: And the Activity [22]?
Answer: Its Activity is 30%.

Question: What about the Activity [23] of the same compound?
Answer: Its Activity is “inactive”.

Question: What about the Activity [24] of the same compound?
Answer: Its Activity is “Active”.

Question: What about the Activity [25] of the same compound?
Answer: The Activity was “inactive”.

Question: What about the Activity [26] of the same compound?
Answer: The Activity was “Active”.

Question: And the MBC [27]?
Answer: Its MBC is greater than 130 µM.

Question: What about the MIC [27] of the same compound?
Answer: Its MIC is 30 µM (≈ 9.3 µg/mL).

Question: What about the Activity [28] of the same compound?
Answer: The Activity was “Active”.

Question: What about the Activity [29] of the same compound?
Answer: Its Activity is “Active”.

Question: And the Activity [30]?
Answer: Its Activity is “Active”.

Question: What about the Activity [31] of the same compound?
Answer: Its Activity is “Active”.

Question: What about the Activity [32] of the same compound?
Answer: Its Activity is “Active”.

Question: And the Activity [33]?
Answer: Its Activity is “Active”.

Question: And the MBC [34]?
Answer: The MBC was greater than 130 µM.

Question: And the MIC [34]?
Answer: The MIC was 15 µM (≈ 4.65 µg/mL).
